Experimental data reported in patent US5466716A, “Liposomal trimethylsphingosine” (The Biomembrane Institute, priority 1994, dated 1995).

Columns and labels:
[1] = neutrophil viability (trypan blue exclusion); type: cell-based, human; settings: neutrophils, Table III, control 94
Procedure: (§1) The viability was evaluated by trypan blue exclusion assay. The cell
(§2) incubated at 37° C. for 10 min with effectors. The aliquot was
(§3) mixed with an equal amount of trypan blue solution and immediately counte
(§4) under a Nikon light microscope.

GMP-140 = GMP-140 expression on platelets (flow cytometry, mAb AC1.2); type: cell-based, human
Procedure: FIGS. 11A and 11B depict results of representative experiments assessing the percentage of platelets capable of binding an anti-GMP-140 antibody following exposure to various agents. The percentage binding activity was determined in a flow cytometer. SPN is sphingosine; H-7 is 1-(5-isoquinolinylsulfonyl)-2-methylpiperazine; Cal is calphostin-C; TMS is trimethylsphingosine; and DMS is dimethylsphingosine.
GMP-140 expression was determined by (i) flow cytometry with mAb AC1.2, which is directed to GMP-140 and obtained from Dr. Furie (Tufts Univ. Sch. Med., Boston, Mass.) and (ii) adhesion of HL60 cells on platelet-coated solid phase.
A suspension of platelets (1×10^8 /ml) in Tyrode's buffer was preincubated with inhibitor at pH 7.2, 37° C., for 5 minutes, then supplemented with activator, either thrombin (final concentration 1 U/ml) or phorbol 12-myristate 13-acetate (PMA (final concentration 10^-7 M), and the mixture was incubated at 37° C. for 10 minutes. Platelets were fixed with an equal volume of 2% (w/v) paraformaldehyde in PBS and washed 2 times with PBS containing 1% (w/v) BSA.
The paraformaldehyde-fixed platelets were incubated with 50 μl of mAb AC1.2 (2.5 μg/ml) at room temperature for 30 minutes. Platelets were washed 2 times with PBS containing 1% (w/v) BSA, supplemented with 50 μl of fluorescein isothiocyanate-labeled goat anti-mouse Ig (purchased from Tago Co., Burlingame, Calif.), incubated at room temperature for 30 minutes and again washed 2 times with PBS containing 1% (w/v) BSA. As a negative control, paraformaldehyde-fixed platelets were incubated with mouse IgG instead of mAb AC1.2 and treated as described above.
The platelets were analyzed in an Epics flow cytometer (Coulter Corp.) with suitable gating. To calculate the inhibitory effect of various reagents, the mean fluorescence intensity of resting platelets (obtained on incubation of platelets without activator) was subtracted from the value for the activated platelet sample.

protein kinase-C = settings: in vitro, Tamaoki & Nakano; cited from earlier work
neutrophils [2] = assay: neutrophil transmigration through HUVEC monolayer; type: cell-based, human; settings: for neutrophil transmigration (number of cells transmigrated): Table II, control 100, 90 min
Procedure: (§5) A characteristic of neutrophils is the ability to adhere to activiated EC's and to migrate through the EC monolayer into the vascular or extravascular matrix. The effect of TMS on neutrophil interactions with EC's and their subsequent trans-endothelial migration thereof can be monitored in vitro using human umbilical endothelial cells (HUVEC's) (Luscinskas et al., J. Imm., 146, 1617, 1991). Neutrophils are added to a HUVEC monolayer and neutrophil-HUVEC interactions are assessed microscopically following fixation, embedding and staining of monolayer sections.
Cross-sections (2 μm) of the collagen bed with HUVEC's and neutrophils
were observed using a Zeiss light microscope with KPL W10 ahd Ph2 Neoflua
16 lenses. The number of cells transmigrated were counted for each view.
(§6) HUVEC's and culture media were purchased from Cell Systems (Kirkland, Wash.). The cells were maintained and cultured as described in Luscinskas et al., supra, with some modifications. Briefly, HUVEC's were maintained in 10 ml tissue culture flasks on a collagen type I bed obtained from rat tail (Upstate Biotechnology Inc, Lake Placid, N.Y.) with CS-complete medium, CS-growth factor and CS-AF-1 (Cell Systems). Cells became confluent within 2 to 4 days when incubated in 5% CO2 at 37° C.
For the transmigration assay, thick gels were formed in 24-well tissue culture plates. Preparation of the gel solution was carried out at 4° C. Eight parts of collagen solution (Vitrogen 100, from bovine tendon which contained less than 5 ng/ml endotoxin; Celtrix Labs, Palo Alto, Calif.), one part of 10×RPMI and one part of alkaline solution (2.2 g NaHCO3 in 100 ml of 0.05N NaOH and 200 mM HEPES) were mixed gently and distributed at 0.7 ml/well. The solution was left for 4 hr at 37° C. to eliminate air bubbles, then allowed to gel in a 37° C. oven for 3 hr. The wells were washed with 1.0 ml of CS-complete medium with attachment factors at least 4 times and every 3 to 6 hr during further incubation at 37° C. in 5% CO2.
HUVEC's at a passage level of less than 3 were detached from 10 ml tissue culture flasks with 3 ml of Trypsin-EDTA at 37° C. for 30 to 60 sec. Immediately, 3 ml of M199 with 20% heat-inactivated FCS was added. Cells were collected by centrifugation. The pellet was resuspended in 10 ml of CS-complete medium with attachment factors. Homogeneous cell suspensions were plated at 0.7 ml to each well and the plates were incubated for 3 hr at 37° C. The supernatant, which contains dead cells, was aspirated carefully and fresh complete medium with attachment factors was added.
The HUVEC monolayer in 24-well tissue culture plates were washed with M199 without FCS, then incubated with 1 ml/well of IL-1β (Boehringer Mannheim Biochemical Products, Indianapolis, Ind.) dissolved in M199 with 1% heat-inactivated FCS (HIFCS) at 10 U/ml. The plates were incubated at 37° C., 5% CO2 for 4 hr then washed gently with 1 ml of M199. The purified neutrophil suspension (1.5×10^6 cells/ml) in M199 containing 1% HIFCS was pre-incubated with TMS, or other effectors, for 10 min at 37° C. After aspirating the media in the well, 0.5 ml of the neutrophil suspension were added onto the HUVEC monolayer. The tissue culture plate was incubated for 90 min at 37° C.
The culture was terminated by gently aspirating the cell suspension, adding 1 ml of 10% formaldehyde in PBS and stored at 4° C. overnight for fixation. The edge of the collagen bed was cut with a small spatula along the wall 2 hr before removal from the well. The collagen bed, which has HUVEC's on the surface and transmigrated neutrophils within was embedded in paraffin, sectioned and followed by staining with hematoxylin-eosin for microscopic examination.

neutrophils [3] = assay: phagokinetic activity of neutrophils on gold sol-coated plates; type: cell-based, human
Procedure: The phagokinetic activity of neutrophils on gold sol-coated plates can be determined by a technique essentially as taught in Albrecht-Buehler (Cell, 11, 395, 1977). […] Thus, the inhibitory effect of TMS on phagokinetic activity is not dependent on cytotoxicity.
.sctn. The area swept by neutrophils was determined in photographs of the
monolayers. The regions cleared by neutrophil movement were then cut out
Phagokinetic activity was observed by tracing tracks of neutrophils moving on a glass substrate covered with gold colloid particles. The technique was described originally by Albrecht-Buehler, supra, using 3T3 and other cell lines. Briefly, 22×22 mm square glass coverslips (Corning Glass Works, Corning, N.Y.) were dipped for 1 min into 1% BSA prepared in Milli Q water. The BSA solution was prepared fresh each day and passed through 0.20 μm Nalgene filters (Nalgene Labware Division, Rochester, N.Y.).
The coverslip then was drained by touching a Kim-wipe paper towel to its edge, dipped into 100% ethanol and rapidly and completely dried in a 85° C. hot airstream. The coverslip was placed in a 3.5 cm Falcon plastic dish. Then 5.4 ml of AuCl4 H and 18 ml of 36.5 mM Na2 CO3 were added to 33 ml of distilled water and heated. Immediately after reaching the boiling point, 5.4 ml of 0.1% formaldehyde in water were added quickly and mixed. The suspension of gold particles forming a brownish color was distributed immediately onto the dish (2 ml each) and the coverslip was incubated for 2 hr at 37° C.
Particle-coated coverslips were washed in PBS, then twice in RPMI 1640 and finally put in another 3.5 cm Falcon plastic dish containing 2 ml of RPMI 1640 with glutamate and pyruvate. The coverslips were stored at 4° C. and used within 24 hr after preparation.
The freshly-purified neutrophils (1×10^4 cells/plate) were added onto the colloid-coated coverslip. TMS and other effectors were added into the medium on the plate. As a control, the solvent of the effectors (50% ethanol) was added at an equal amount. At that concentration (0.1%), ethanol brought no significant effect on neutrophil activities. To observe cell recovery from exposure to the effectors, neutrophils (2×10^5 cells/ml) were pre-incubated at 37° C. with 12 μM of TMS, SPN and DMS, then distributed to the dish dropwise, diluting the effectors 200-fold. Incubation was conducted under 5% CO2 at 37° C. for 2 hr and terminated by adding 200 μl of 10% formaldehyde. Microscopic examination of each plate was performed with a Nikon microscope, connected to a Polaroid camera for recordings. Phagokinetic activity was measured by tracing the track of a neutrophil. The track was recorded with photographs, then the area was measured by cutting and weighing there swept area.

water solubility = type: physicochemical; settings: particularly at physiologic pH
Text: For comparison purposes those same test cells also are exposed to sphingosine and N,N-dimethylsphingosine.

HUVEC's = assay: morphologic damage to endothelial cells (HUVEC's); type: cell-based, human; settings: staurosporine 2 μM, calphostin C 5 μM
Procedure: as §5, §6
The HUVEC monolayer in 24-well tissue culture plates were washed with M199 without FCS, then incubated with 1 ml/well of IL-1β (Boehringer Mannheim Biochemical Products, Indianapolis, Ind.) dissolved in M199 with 1% heat-inactivated FCS (HIFCS) at 10 U/ml. The plates were incubated at 37° C., 5% CO2 for 4 hr then washed gently with 1 ml of M199. […]

[4] = tested on: phosphoinositide turnover; assay: fMLP-induced phosphoinositide turnover in neutrophils (32P incorporation); type: cell-based, human; settings: Table VI, 1 μM fMLP alone, control 100
Procedure: Amount of ^32 P in PIP and PIP2 was measured using TLC separation. The spots on TLC plates were scraped off and the radioactivity therein was measured with a Beckman scintillation counter. Each spot was compared as to intensity with the identical spot of the control sample.
After incubation, the cells were washed and resuspended in the same buffer at a concentration of 1×10^7 cells/ml. Each suspension (1 ml) then was pretreated with TMS, SPN or DMS, or equal volume of 50% ethanol, for 10 min at 37° C. Then keeping the same temperature, fMLP was added to a final concentration of 1.0 μM. Two minutes later, the reaction was terminated by adding 3.75 ml of chloroform/methanol (1:2) to each cell suspension, followed by sonication for 15 min. An additional 1.25 ml of chloroform, 1.25 ml of water and 50 μl of acetone were added and the total mixture was mixed and left overnight.
Following centrifugation of the mixture, the phospholipids were extracted by Folch's partition method, taking the lower phase from the cell lysate. […] The TLC plate was developed with control phospholipids, in a solvent comprising chloroform/methanol/4M NaOH at a ratio of 45:35:10 and containing 0.1% CDTA (trans-1,2-diaminocyclohexane-N,N,N',N'-tetraacetic acid) for 65 min at 37° C. The bands were identified by staining the control phospholipids with primuline and visualization under ultraviolet light. Autoradiography was performed with Kodak diagnostic film GBX-2 (Rochester N.Y.) by exposing overnight at 37° C.

neutrophils [5] = assay: neutrophil viability (trypan blue exclusion); type: cell-based, human; settings: Table V, 37° C., 10 min, in % (unit assumed)
Procedure: as §1, §2, §3, §4

[6] = Homo sapiens, Neutrophil, 1.5 h, read-out: Number of Cells/View
[7] = Homo sapiens, Neutrophil, 2 h, read-out: Area Swept

Molecule: CC1CNCCN1S(=O)(=O)c1cccc2cnccc12 (stereo not shown) [H-7, 1-(5-isoquinolinylsulfonyl)-2-methylpiperazine]
- viability at 10 min, 200 µM ([1]; 200 μM): 79 ± 7.1%
- inhibition of GMP-140 expression (GMP-140; PMA-induced, FIG. 11B): Neither SPN nor H-7 showed inhibition
- inhibition of GMP-140 expression (GMP-140; thrombin-induced, FIG. 11A): no inhibition
- concentration reported to inhibit protein kinase-C (protein kinase-C): 15 µM
- activity at 200 µM (neutrophils [2]; [6]): 38 ± 12%
- activity at 200 µM (neutrophils [3]; [7]): 27 ± 6%

Molecule: CCCCCCCCCCCCC/C=C/[C@@H](O)[C@H](CO)NC [N-monomethylsphingosine]
- water solubility (water solubility): less water soluble

Molecule: CN[C@@H]1C[C@H]2O[C@@](C)([C@@H]1OC)n1c3ccccc3c3c4c(c5c6ccccc6n2c5c31)C(=O)NC4 [Staurosporine]
- viability at 10 min, 2 µM ([1]; 2 μM): 83 ± 3.6%
- activity at 2 µM (neutrophils [2]; [6]): 52 ± 25%
- activity at 0.2 µM (neutrophils [3]; [7]): 13 ± 12%
- morphologic damage to EC's (HUVEC's): striking morphologic damage to EC's

Molecule: CSCC[C@H](NC=O)C(=O)N[C@@H](CC(C)C)C(=O)N[C@@H](Cc1ccccc1)C(=O)O [fMLP, formyl-methionyl-leucyl-phenylalanine, reference compound]
- PIP labeling [4]: 182 ± 39

Molecule: Ceramide
- Viability of neutrophils (neutrophils [5]; 5 μM): 98 ± 2
- Viability of neutrophils (neutrophils [5]; 15 μM): 96 ± 1
- Viability of neutrophils (neutrophils [5]; 45 μM): 91 ± 3
- neutrophil transmigration (number of cells transmigrated) (neutrophils [2]; 4 μM): 92 ± 24
- neutrophil transmigration (number of cells transmigrated) (neutrophils [2]; 15 μM): 87 ± 27
- neutrophil transmigration (number of cells transmigrated) (neutrophils [2]; 45 μM): 83 ± 16
- Area Swept (neutrophils [3]; Table I, 4.5 μM, control 100, 120 min): 109 ± 25%
